Test results published in ChEMBL document CHEMBL5291721, “A preclinical secondary pharmacology resource illuminates target-adverse drug reaction associations of marketed drugs” (Nat Commun, 2023).

Legend:
B2 bradykinin receptor = target: T1, B2 bradykinin receptor (Homo sapiens, UniProt P30411)
T1 sequence (P30411 whole entry): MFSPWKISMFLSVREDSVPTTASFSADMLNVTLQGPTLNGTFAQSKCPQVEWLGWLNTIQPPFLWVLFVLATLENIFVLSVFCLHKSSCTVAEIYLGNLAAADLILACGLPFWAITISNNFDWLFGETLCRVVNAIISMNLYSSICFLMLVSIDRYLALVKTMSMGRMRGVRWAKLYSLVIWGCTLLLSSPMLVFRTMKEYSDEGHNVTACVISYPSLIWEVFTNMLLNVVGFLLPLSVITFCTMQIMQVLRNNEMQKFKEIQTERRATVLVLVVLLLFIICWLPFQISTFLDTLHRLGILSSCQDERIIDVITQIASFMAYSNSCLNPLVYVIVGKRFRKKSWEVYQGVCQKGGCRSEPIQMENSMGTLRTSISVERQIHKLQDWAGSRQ

[1] = target: T2, Equilibrative nucleoside transporter 1 (Homo sapiens, UniProt Q99808)
T2 sequence (Q99808 whole entry): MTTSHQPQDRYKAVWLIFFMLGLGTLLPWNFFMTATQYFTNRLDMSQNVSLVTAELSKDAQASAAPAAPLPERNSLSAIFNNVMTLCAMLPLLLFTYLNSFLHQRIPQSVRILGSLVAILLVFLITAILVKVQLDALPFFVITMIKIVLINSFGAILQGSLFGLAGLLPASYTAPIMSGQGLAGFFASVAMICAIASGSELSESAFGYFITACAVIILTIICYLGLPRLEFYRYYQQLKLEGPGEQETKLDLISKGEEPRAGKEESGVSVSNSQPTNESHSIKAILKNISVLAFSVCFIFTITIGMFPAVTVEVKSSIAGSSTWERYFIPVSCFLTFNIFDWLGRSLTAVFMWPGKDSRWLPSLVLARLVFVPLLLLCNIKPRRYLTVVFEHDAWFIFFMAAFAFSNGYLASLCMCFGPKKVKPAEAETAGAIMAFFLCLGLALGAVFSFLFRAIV

Adenosine receptor A2a = Adenosine receptor A2a (Homo sapiens, UniProt P29274)
Vasopressin V1a receptor = Vasopressin V1a receptor (Homo sapiens, UniProt P37288)
Endothelin-1 receptor = target: T3, Endothelin-1 receptor (Homo sapiens, UniProt P25101)
T3 sequence (P25101 whole entry): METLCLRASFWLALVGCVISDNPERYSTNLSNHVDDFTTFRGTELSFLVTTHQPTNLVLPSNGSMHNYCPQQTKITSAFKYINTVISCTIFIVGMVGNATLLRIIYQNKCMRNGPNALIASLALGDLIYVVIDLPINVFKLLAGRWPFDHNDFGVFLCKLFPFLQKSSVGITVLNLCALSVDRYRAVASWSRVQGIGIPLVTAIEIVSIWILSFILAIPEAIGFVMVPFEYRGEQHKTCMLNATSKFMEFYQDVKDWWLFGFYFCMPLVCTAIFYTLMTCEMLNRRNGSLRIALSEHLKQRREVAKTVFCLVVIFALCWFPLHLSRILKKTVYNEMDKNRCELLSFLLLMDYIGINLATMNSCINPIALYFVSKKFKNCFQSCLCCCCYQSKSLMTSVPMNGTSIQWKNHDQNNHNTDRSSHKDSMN

Adenosine receptor A1 = target: T4, Adenosine receptor A1 (Homo sapiens, UniProt P30542)
T4 sequence (P30542 whole entry): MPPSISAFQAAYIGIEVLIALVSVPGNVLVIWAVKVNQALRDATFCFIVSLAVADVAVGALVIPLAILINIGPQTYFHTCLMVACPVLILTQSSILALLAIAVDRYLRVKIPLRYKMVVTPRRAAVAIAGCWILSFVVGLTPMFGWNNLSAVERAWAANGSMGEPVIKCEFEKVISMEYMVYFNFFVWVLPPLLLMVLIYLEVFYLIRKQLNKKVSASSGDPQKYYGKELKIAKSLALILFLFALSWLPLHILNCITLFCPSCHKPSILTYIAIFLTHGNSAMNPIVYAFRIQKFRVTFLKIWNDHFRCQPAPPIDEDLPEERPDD

[2] = target: Beta-1 adrenergic receptor (Homo sapiens, UniProt P08588); format: functional
[3] = target: T5, 5-hydroxytryptamine receptor 3A (Homo sapiens, UniProt P46098); format: functional
T5 sequence (P46098 whole entry): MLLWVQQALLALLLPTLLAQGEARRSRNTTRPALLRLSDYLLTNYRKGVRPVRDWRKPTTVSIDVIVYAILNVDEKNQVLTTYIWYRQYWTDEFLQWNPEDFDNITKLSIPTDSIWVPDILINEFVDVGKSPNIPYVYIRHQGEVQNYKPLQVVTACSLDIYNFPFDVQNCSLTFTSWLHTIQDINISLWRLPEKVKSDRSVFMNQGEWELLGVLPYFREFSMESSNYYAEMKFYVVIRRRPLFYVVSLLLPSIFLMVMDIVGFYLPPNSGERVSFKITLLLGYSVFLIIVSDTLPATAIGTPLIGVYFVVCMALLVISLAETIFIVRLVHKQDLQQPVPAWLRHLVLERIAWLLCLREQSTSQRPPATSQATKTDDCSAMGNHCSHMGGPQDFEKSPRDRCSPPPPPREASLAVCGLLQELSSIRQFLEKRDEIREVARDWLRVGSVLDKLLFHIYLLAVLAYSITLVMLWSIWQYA

Cannabinoid receptor 1 = Cannabinoid receptor 1 (Homo sapiens, UniProt P21554); format: functional, cell-based
Note: assay procedure not described here.

Vasopressin V1a receptor, sequence (P37288 whole entry): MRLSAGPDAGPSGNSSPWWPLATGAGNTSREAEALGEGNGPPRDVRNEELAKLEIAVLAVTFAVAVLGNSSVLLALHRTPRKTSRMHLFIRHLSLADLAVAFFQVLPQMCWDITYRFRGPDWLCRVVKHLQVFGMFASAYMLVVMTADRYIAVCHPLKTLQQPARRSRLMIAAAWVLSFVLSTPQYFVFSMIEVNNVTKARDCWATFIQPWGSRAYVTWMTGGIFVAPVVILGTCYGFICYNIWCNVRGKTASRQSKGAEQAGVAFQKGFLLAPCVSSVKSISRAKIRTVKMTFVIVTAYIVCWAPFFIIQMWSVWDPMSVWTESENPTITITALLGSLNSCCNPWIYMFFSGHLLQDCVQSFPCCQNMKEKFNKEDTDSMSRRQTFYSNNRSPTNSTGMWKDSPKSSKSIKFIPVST
Cannabinoid receptor 1, sequence (P21554 whole entry): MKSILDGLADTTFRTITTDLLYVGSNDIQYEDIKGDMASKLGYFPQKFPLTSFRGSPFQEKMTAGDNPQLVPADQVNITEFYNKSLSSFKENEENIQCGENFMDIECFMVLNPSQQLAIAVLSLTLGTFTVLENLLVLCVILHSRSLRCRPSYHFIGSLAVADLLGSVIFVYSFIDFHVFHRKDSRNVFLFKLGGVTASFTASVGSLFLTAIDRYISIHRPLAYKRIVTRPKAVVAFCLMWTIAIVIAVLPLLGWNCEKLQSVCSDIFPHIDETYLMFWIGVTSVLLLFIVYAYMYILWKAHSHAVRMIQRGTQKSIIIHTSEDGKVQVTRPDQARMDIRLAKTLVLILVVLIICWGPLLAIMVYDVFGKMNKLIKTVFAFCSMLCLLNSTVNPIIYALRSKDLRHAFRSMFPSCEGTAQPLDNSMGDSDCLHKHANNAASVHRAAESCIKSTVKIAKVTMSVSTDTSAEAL
Beta-1 adrenergic receptor, sequence (P08588 whole entry): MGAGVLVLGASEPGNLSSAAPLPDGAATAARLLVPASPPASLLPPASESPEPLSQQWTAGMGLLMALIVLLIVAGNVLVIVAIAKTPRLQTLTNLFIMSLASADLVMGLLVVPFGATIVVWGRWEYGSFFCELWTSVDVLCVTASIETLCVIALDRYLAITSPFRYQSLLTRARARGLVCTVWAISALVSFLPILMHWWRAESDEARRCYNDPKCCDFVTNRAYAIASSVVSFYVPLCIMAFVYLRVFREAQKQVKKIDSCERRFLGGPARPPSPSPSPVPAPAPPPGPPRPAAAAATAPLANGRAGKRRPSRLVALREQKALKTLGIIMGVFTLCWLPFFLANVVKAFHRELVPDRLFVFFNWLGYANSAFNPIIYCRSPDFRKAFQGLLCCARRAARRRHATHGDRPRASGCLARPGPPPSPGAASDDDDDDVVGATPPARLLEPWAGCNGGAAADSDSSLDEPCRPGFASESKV
Adenosine receptor A2a, sequence (P29274 whole entry): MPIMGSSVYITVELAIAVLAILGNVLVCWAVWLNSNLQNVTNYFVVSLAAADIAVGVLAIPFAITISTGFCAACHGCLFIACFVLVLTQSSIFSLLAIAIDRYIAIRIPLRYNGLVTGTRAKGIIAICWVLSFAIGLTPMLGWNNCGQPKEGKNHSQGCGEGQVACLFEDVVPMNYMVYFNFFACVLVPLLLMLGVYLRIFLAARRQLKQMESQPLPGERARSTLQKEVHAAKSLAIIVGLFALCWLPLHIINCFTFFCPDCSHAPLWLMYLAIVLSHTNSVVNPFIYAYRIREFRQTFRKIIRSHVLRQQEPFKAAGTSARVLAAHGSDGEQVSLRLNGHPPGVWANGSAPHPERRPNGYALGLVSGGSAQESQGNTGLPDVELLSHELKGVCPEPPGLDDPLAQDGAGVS

Structure (SMILES) | AC50 (B2 bradykinin receptor) [µM] | AC50 [1] [µM] | AC50 (Adenosine receptor A2a) [µM] | AC50 (Vasopressin V1a receptor) [µM] | AC50 (Endothelin-1 receptor) [µM] | AC50 (Adenosine receptor A1) [µM] | AC50 [2] [µM] | AC50 [3] [µM] | AC50 (Cannabinoid receptor 1) [µM]
CNC(C)CCC=C(C)C (configuration not stated) [ISOMETHEPTENE] | > 30 | > 30 | > 30 | > 30 | > 30 | > 30 | > 30 | – | –
CN1CCN(CC/C=C2/c3ccccc3Sc3ccc(S(=O)(=O)N(C)C)cc32)CC1 [THIOTHIXENE] | > 30 | > 30 | 11.6 | > 10 | > 30 | > 30 | > 10 | 1.6 | > 30
Nc1nc(N)nc(-c2cc(Cl)ccc2Cl)n1 [IRSOGLADINE] | > 30 | – | > 30 | – | > 30 | > 30 | > 30 | – | > 30
CC(=O)O[C@H]1C[C@@H]2CC[C@@H]3[C@H](CC[C@@]4(C)[C@H]3C[C@H]([N+]3(C)CCCCC3)[C@@H]4OC(C)=O)[C@@]2(C)C[C@@H]1N1CCCCC1 [VECURONIUM] | > 30 | > 30 | > 30 | – | > 30 | > 30 | > 30 | > 30 | > 30
Cc1ccc(S(=O)(=O)NC(=O)NN2CC3CCCC3C2)cc1 (configuration not stated) [GLICLAZIDE] | > 10 | > 10 | > 10 | – | – | > 10 | > 10 | > 30 | –
O=C(NCCN1CCOCC1)c1ccc(Cl)cc1 [MOCLOBEMIDE] | > 10 | > 10 | > 10 | – | – | > 10 | > 10 | > 30 | –
CC(C)Cn1cnc2c(N)nc3ccccc3c21 [IMIQUIMOD] | > 10 | > 30 | 19.5 | – | – | > 10 | > 10 | > 30 | –
CCCN(CCC)C(=O)C(CCC(=O)O)NC(=O)c1ccccc1 (configuration not stated) [PROGLUMIDE] | > 30 | > 30 | > 30 | > 30 | > 30 | > 30 | > 30 | > 30 | –
CC(C)(C)c1cc(C(C)(C)C)c(NC(=O)c2c[nH]c3ccccc3c2=O)cc1O [IVACAFTOR] | > 30 | > 30 | > 30 | > 30 | – | > 30 | > 10 | > 30 | –
C[C@]12CC[C@H]3[C@@H](CCC4=CC(=O)CC[C@@]43C)[C@@H]1CC[C@@H]2O [TESTOSTERONE] | > 10 | > 10 | > 10 | – | – | > 10 | > 10 | > 30 | –
C#C[C@]1(O)CC[C@H]2[C@@H]3CCC4=Cc5oncc5C[C@]4(C)[C@H]3CC[C@@]21C [DANAZOL] | > 10 | > 10 | > 30 | – | – | > 30 | > 10 | – | –
CNS(=O)(=O)Cc1ccc2[nH]cc(CCN(C)C)c2c1 | > 30 | > 30 | > 30 | > 10 | > 30 | > 30 | > 10 | – | > 30
